Assay results from patent publication US11433053B2, “LSD1 inhibitor and preparation method and application thereof” (CSPC ZHONGQI PHARMACEUTICAL TECHNOLOGY (SHIJIAZHUANG) CO., …, priority 2017, dated 2022).

Tests used:
human LSD1 = human LSD1 (Homo sapiens (Human), UniProt O60341); assay: Evaluation of enzyme activity: LSD1 fluorescence coupling enzyme assay (HRP/Amplex Red); assay type: biochemical; details: human LSD1, histone H3(1-21)K4me2 peptide 10 μM, 30 min pre-incubation
Summary of the method: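 Human LSD1 preincubated 30 min with compound, then reacted with H3(1-21)K4me2 peptide (10 μM). FAD-dependent H2O2 detected via HRP/Amplex Red fluorescence (Ex/Em 535/590). Ten-dose, 3-fold dilutions in duplicate from 10 μM gave IC50s, binned into activity classes.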

H1417 cells = assay: Cell proliferation inhibitory activity on H1417 cells (CellTiter-Glo, 10 days); assay type: cell-based, human; details: Homo sapiens; for IC50: NCI-H1417, 240 h, H1417 cells, 10 days incubation; for Emax: NCI-H1417, H1417 cells, highest percentage inhibition of cell viability, read-out: Maximum inhibition percentage (%)
Summary of the method: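 H1417 cells in RPMI 1640 with fetal bovine serum were treated with 10-point 3-fold compound dilutions for 10 days. Viability was read by CellTiter-Glo luminescence. IC50 came from a four-parameter fit of percent inhibition, and maximal inhibition was also categorized.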

[1] = Pharmacokinetic evaluation in C57BL/6 mice after intravenous and oral administration; assay type: in vivo; details: male, mouse, plasma; for Cmax / clearance / half-life / Vd: IV 1 mg/kg; for Cmax: oral 2 mg/kg, route of Cmax not stated, read-out: max concentration Cmax; for clearance: read-out: clearance CL; for half-life: read-out: half-life T1/2 (IV, h) (converted); for Vd: read-out: volumes of distribution Vdss; for bioavailability: PO 2 mg/kg vs IV 1 mg/kg, read-out: bioavailability F (%); for AUC(0-t): PO 2 mg/kg, read-out: the area under the plasma concentration-time curve AUC0-last PO
Protocol: Experimental purposes: To test the pharmacokinetics of compounds in C57BL/6 mice
C57BL/6 mice (male, 7-9 weeks old, Shanghai Slack)
Test the pharmacokinetics characteristics of rodents after intravenous and oral administration in accordance with standard protocols, and the candidate compound was formulated into a clear solution in the experiment. The mice were administered by intravenous injection and orally once. The intravenous and oral vehicle is a 10% aqueous solution of hydroxypropyl β-cyclodextrin or a physiological saline solution. Six male C57BL/6 mice were employed in this assay, three of them were administered intravenously at a dose of 1 mg/kg, plasma samples were collected at 0 h (before administration) and 0.0833, 0.25, 0.5, 1, 2, 4, 7, 24 h after administration. Another three mice were administered by oral gavage at a dose of 2 mg/kg, plasma samples were collected at 0 h (before administration) and 0.5, 1, 2, 3, 4, 6, 24 h after administration. Collect whole blood samples within 24 hours, centrifuge at 3000 g for 15 minutes, separate the supernatant to obtain a plasma sample, 4 times volume of the internal standard acetonitrile solution was added to precipitate the protein. Centrifuge the supernatant and add an equal volume of water and centrifuge to take the supernatant. LC-MS/MS was used to quantitatively analyze plasma concentrations and calculate pharmacokinetic parameters such as max concentration (Cmax), clearance (CL), half-life (T1/2), volumes of distribution (Vdss), the area under the plasma concentration-time curve (AUC0-last), bioavailability (F), etc.

hERG potassium channel = hERG potassium channel (Homo sapiens (Human), UniProt Q12809); assay: Assay on inhibiting hERG potassium channel (automatic patch clamp, CHO-hERG cells); assay type: cell-based; details: Qpatch, max test concentration 40 μM
hERG potassium channel, sequence (Q12809 whole entry): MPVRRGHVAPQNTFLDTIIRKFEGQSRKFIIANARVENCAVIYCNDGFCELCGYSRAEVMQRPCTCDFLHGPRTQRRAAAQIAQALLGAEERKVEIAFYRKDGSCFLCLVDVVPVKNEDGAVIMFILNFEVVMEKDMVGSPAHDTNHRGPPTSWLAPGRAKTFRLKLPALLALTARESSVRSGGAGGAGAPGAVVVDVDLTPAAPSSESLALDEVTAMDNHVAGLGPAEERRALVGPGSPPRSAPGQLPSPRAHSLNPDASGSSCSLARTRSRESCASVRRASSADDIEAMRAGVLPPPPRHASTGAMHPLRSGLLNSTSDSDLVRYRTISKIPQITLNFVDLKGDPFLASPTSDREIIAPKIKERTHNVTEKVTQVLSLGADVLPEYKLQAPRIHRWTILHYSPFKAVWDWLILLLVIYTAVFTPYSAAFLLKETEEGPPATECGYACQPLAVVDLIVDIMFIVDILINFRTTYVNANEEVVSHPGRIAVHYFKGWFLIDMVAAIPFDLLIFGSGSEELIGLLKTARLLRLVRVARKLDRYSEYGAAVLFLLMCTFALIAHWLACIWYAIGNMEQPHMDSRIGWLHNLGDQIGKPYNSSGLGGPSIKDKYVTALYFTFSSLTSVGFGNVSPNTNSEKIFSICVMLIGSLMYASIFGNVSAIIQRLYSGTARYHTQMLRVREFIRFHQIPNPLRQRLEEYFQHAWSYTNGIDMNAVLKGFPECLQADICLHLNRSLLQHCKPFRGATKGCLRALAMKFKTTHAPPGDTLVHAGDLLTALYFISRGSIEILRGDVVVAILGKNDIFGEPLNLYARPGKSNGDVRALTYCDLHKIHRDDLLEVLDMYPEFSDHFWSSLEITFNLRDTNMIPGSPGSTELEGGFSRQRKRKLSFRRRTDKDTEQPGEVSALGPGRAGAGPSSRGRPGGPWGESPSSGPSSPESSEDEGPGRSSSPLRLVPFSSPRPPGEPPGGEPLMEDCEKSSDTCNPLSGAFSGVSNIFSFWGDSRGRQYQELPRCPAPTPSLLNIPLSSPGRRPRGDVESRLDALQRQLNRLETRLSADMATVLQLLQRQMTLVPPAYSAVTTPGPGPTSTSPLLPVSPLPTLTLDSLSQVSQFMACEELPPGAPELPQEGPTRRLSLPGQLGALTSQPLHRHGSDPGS
Protocol: Experimental purpose: Using automatic patch clamp method to detect the effect of the sample to be tested on hERG potassium channel.
4.1.1 CHO-hERG cells were cultured in 175 cm^2 flasks. When the cell density was increased to 60-80%, the culture solution was removed and the resultant was washed with 7 mL PBS (Phosphate Buffered Saline phosphate buffer), then 3 mL of digestive juice was added to digest.
4.1.2 After the digestion finished, 7 mL culture solution was added to neutralize. Then centrifuge, aspirate the supernatant, and then resuspend by adding 5 mL culture solution to ensure a cell density of 2-5×10^6/mL.
Single cell high impedance sealing and whole cell pattern formation were all done automatically by the Qpatch instrument. After the whole-cell recording mode was obtained, the cells were clamped at −80 mV. 50-Millisecond−50 mV preamplifier was applied prior to a 5 second+40 mV depolarization stimulus. Then the voltage was repolarized to −50 mV for 5 seconds and back to −80 mV. This voltage stimulation was applied every 15 seconds, and the extracellular fluid was recorded over 5 minutes after 2 minutes' record, and then the administration process was started. The compound concentration was started from the lowest test concentration, and each test concentration was given for 2.5 minutes. Test at least 3 cells (n≥3) for each concentration.
4.4.1 Dilute 20 mM mother liquor of the compound with extracellular fluid 5 μL of 20 mM mother liquor of the compound was added to 2495 μL extracellular fluid, and the mixture was 500-fold diluted to 40 μM. Then 0.2% DMSO in extracellular fluid was 3-fold diluted sequentially to obtain the final concentration to be tested.
4.4.2 The max test concentration was 40 μM, 6 concentrations were 40, 13.33, 4.44, 1.48, 0.49, and 0.16 μM respectively.
Experimental data was analyzed by XLFit software.

| Compound | IC50 (human LSD1) [nM] | IC50 (H1417 cells) [nM] | Emax (H1417 cells) [%] | Cmax [1] [ng/mL] | clearance [1] [mL/min/kg] | half-life [1] [h] | Vd [1] [L/kg] | bioavailability [1] [%] | AUC(0-t) [1] [µM·h] | IC50 (hERG potassium channel) [µM] |
| --- | --- | --- | --- | --- | --- | --- | --- | --- | --- | --- |
| N[C@H]1CC[C@H](c2nc(C3(CN[C@@H]4C[C@H]4c4ccccc4)CC3)no2)CC1 [Example 144] | ≤ 50 | 100 to 500 | 90 to 100 | 25.3 | 92 | 4.5 | 28.5 | 21.5 | 0.17 | > 40 |
| N[C@H]1CC[C@@H](c2nc(C3(CN[C@@H]4C[C@H]4c4ccccc4)CC3)no2)CC1 [Example 145] | ≤ 50 | 100 to 500 | 70 to 90 | 11.9 | 108 | 11.7 | 81.8 | 9.1 | 0.0654 | > 40 |
| N[C@H]1CC[C@H](c2cc(C3(CN[C@@H]4C[C@H]4c4ccccc4)CC3)no2)CC1 [Example 241] | ≤ 50 | ≤ 100 | 70 to 90 | 49.5 | 104 | 2.4 | 20.9 | 36.7 | 0.271 | > 40 |
